Test results published in publication PMC7063992, “Opossum Cathelicidins Exhibit Antimicrobial Activity Against a Broad Spectrum of Pathogens Including West Nile Virus” (Frontiers in Immunology, 2020).
No end group written: not given here.

Columns and labels:
Type in all cases: cell-based
[1] = tested on: Human primary keratinocytes; assay: Viability of keratinocytes, XTT; details: 24 h, XTT
From the text: The Ethics Committee of the Poitiers Hospital approved the use of human skin samples for research studies. All subjects provided written informed consent in accordance with the tenets of the Declaration of Helsinki. Normal abdominal or breast skin samples were obtained from patients undergoing plastic surgery and thoroughly washed with PBS free of calcium and magnesium (PBS; Gibco, Thermo Fisher Scientific, Waltham, MA, United States) after fat removal. The skin samples were minced into fragments of approximately 125 mm^2, using scalpel blades. Skin samples were incubated overnight at 4°C in a dispase solution (25 U/mL; Life Technologies, Carlsbad, CA, United States). Epidermal sheets were removed from the dermis, and keratinocytes were dissociated via trypsin digestion (trypsin-EDTA; Gibco) for 15 min at 37°C. The cell suspension was then filtered through a 280-μm sterile filter. DMEM (Gibco) supplemented with 10% (vol/vol) of FBS (Gibco) was added, and the suspension was centrifuged at 300 × g and 25°C for 10 min. Keratinocytes were seeded at a density of 10^7 cells in 75-cm^2 tissue culture flask in keratinocyte-serum free medium (K-SFM; Invitrogen, Carlsbad, CA, United States) supplemented with bovine pituitary extract (25 μg/mL; Invitrogen) and recombinant epidermal growth factor (EGF) (0.25 ng/mL; Invitrogen). The cultures were incubated at 37°C in a humidified atmosphere with 5% CO2 until 80% confluence and then stored frozen in liquid nitrogen until use. Finally, keratinocytes were seeded in sterile 24-well culture plates at 10^5 cells/well in K-SFM supplemented with bovine pituitary extract and EGF and cultured to 80% confluence. Cells were then starved overnight in K-SFM alone before stimulation.
Primary keratinocytes were cultured in 96-well plates at 4 × 10^4 cells per well in 0.1 mL K-SFM (Invitrogen) up to 80% confluence before being treated with various concentrations of ModoCath peptides for 24 h. Cell viability was assessed using the cell proliferation kit II (XTT; Roche, Basel, Switzerland) in accordance with the manufacturer’s protocol. The XTT labeling mixture was added after 24 h of incubation in the absence or presence of peptides at the indicated concentrations.

[2] = tested on: Escherichia coli ATCC 25922; assay: microbe, parasite or virus in culture; details: E. coli ATCC 25922
Protocol: (§1) Peptides corresponding to the predicted antimicrobial regions of ModoCath1 (ΔModoCath1, N-VKRTKRGARRGL […]-C), ModoCath5 (ΔModoCath5, N-[…]-C), ModoCath6 (ΔModoCath6, N-[…]-C) and PMAP36 (N-[…] PLGCG-C) were synthesized via solid-phase peptide synthesis and purified via high-performance liquid chromatography using a commercial service (GenScript, Piscataway Township, NJ, United States). The MIC of synthesized peptides was determined against a panel of bacteria comprising 3 gram-positive strains, Staphylococcus aureus ATCC 6538 (ATCC, Manassas, VA, United States), Bacillus cereus ATCC 10876, and Enterococcus faecalis ATCC 29212, and 3 gram-negative strains, Escherichia coli ATCC 25922, Pseudomonas aeruginosa ATCC 27853, and Salmonella typhimurium ATCC 14028. Ampicillin (Sigma Aldrich, St. Louis, MO, United States) and gentamicin sulfate (Sigma Aldrich) were used as controls for antimicrobial activity. The MIC was determined using a colorimetric method specified by the Microbial Viability Assay Kit-WST (Dojindo, Kumamoto, Japan) in accordance with the manufacturer’s protocol and the Clinical and Laboratory Standards Institute (CLSI) guidelines (2018). Briefly, four colonies of each bacterium were inoculated into 5 mL Luria-Bertani (LB) broth medium at 37°C for 4 to 6 h. The cells were washed with sterile saline (0.9% NaCl) twice and seeded in a single well of a 96-well plate at the cell density of 10^5 CFU/well. Subsequently, 180 μL/well of fresh Mueller-Hinton broth (MHB) was added to the plate. Different concentrations of each peptide and reference antibiotics were serially diluted in 10 μL of MHB and added to each well. The plate was incubated at 37°C for 6 h. Cation-adjusted MH broth (CAMHB) was used to culture E. faecalis. Subsequently, 10 μL of the coloring reagent was added, and cells were incubated at 37°C for 2 h. UV absorbance was measured for each well at 450 nm, using a microplate spectrophotometer (xMark spectrophotometer; Bio-Rad, Hercules, CA, United States). MIC values were determined when the difference in the optical density (OD) between treatments and blanks (media and coloring reagent only) decreased to < 0.05. Experiments were conducted in triplicate. […] The pH conditions were achieved by using acetic acid (Sigma Aldrich).

[3] = tested on: Pseudomonas aeruginosa ATCC 27853; assay: microbe, parasite or virus in culture; details: P. aeruginosa ATCC 27853; MHB, 37°C 6 h + 2 h; triplicate
Protocol: as §1

[4] = tested on: Salmonella typhimurium ATCC 14028; assay: microbe, parasite or virus in culture; details: S. typhimurium ATCC 14028; MHB, 37°C 6 h + 2 h; triplicate
Protocol: as §1

[5] = tested on: Enterococcus faecalis ATCC 29212; assay: microbe, parasite or virus in culture; details: E. faecalis ATCC 29212; CAMHB, 37°C 6 h + 2 h; triplicate
Protocol: as §1

[6] = tested on: Bacillus cereus ATCC 10876; assay: microbe, parasite or virus in culture; details: B. cereus ATCC 10876; MHB, 37°C 6 h + 2 h; triplicate
Protocol: as §1

[7] = tested on: Staphylococcus aureus ATCC 6538; assay: microbe, parasite or virus in culture; details: S. aureus ATCC 6538; MHB, 37°C 6 h + 2 h; triplicate
Protocol: as §1

[8] = Control: MHB at pH 7.5 without any additives, value in brackets
[9] = value in brackets, MHB, 37°C 6 h + 2 h, triplicate

Sequence	Cell viability ± SD ([1]; 8 μg/mL) [%]	Cell viability ± SD ([1]; 16 μg/mL) [%]	Cell viability ± SD ([1]; 32 μg/mL) [%]	Cell viability ± SD ([1]; 64 μg/mL) [%]	MIC ([2]; MHB, 10^5 CFU/well, 37°C 6 h + 2 h with coloring reagent, OD 450 nm, triplicate)	MIC [3]	MIC [4]	MIC [5]	MIC [6]	MIC [7]	MIC ([2]; 1mM MgCl2, value in brackets) [µM]	MIC ([2]; 150mM NaCl, value in brackets) [µM]	MIC [2, 8] [µM]	MIC ([2]; pH 6, value in brackets) [µM]	MIC ([2]; pH 7, value in brackets) [µM]	MIC [2, 9] [µM]	MIC ([2]; 2.5mM CaCl2, value in brackets) [µM]	MIC ([2]; 4.5mM KCl, value in brackets) [µM]
VRRSKRGIKVPSFVKKVLKDVVSESIS [ΔModoCath6]	98.0 ± 1.6	100.3 ± 1.3	101.0 ± 2.6	89.2 ± 7.2	5 (1.64) μg/mL	> 32(10.51) μg/mL	> 32(10.51) μg/mL	> 32(10.51) μg/mL	> 32(10.51) μg/mL	> 32(10.51) μg/mL								
WYQLIRTFGNLIHQKYRKLLEAYRKLRD [ΔModoCath5]	98.1 ± 0.6	96.2 ± 3.5	79.1 ± 13.0	48.9 ± 15.5		> 32(8.83) μg/mL	> 32(8.83) μg/mL	2 (0.55) μg/mL	6 (1.66) μg/mL	1.5 (0.41) μg/mL	2.48	2.07	1.38	0.69	1.38	1.38		
VKRTKRGARRGLTKVLKKIFGSIVKKAVSKGV [ΔModoCath1]	97.1 ± 2.9	91.4 ± 1.6	56.2 ± 8.4	5.8 ± 3.7		2 (0.57) μg/mL	2 (0.57) μg/mL	2 (0.57) μg/mL	30 (8.5) μg/mL	3 (0.85) μg/mL	0.14	0.14	0.21		0.21	0.21	0.29	0.14
